In ChEMBL document CHEMBL1158488, “Investigation of the relative cellular permeability of DNA-binding pyrrole-imidazole polyamides” (J Med Chem, 2009):

How the values were obtained:
HeLa = assay: Cell permeability in human HeLa cells assessed as glucocorticoid receptor-dependent induction of luciferase activity after 40 hrs by GAL4-responsive luciferase reporter gene assay
Glucocorticoid receptor [1] = molecular target: T1, Glucocorticoid receptor (Homo sapiens, UniProt P04150)
T1 sequence (P04150 whole entry): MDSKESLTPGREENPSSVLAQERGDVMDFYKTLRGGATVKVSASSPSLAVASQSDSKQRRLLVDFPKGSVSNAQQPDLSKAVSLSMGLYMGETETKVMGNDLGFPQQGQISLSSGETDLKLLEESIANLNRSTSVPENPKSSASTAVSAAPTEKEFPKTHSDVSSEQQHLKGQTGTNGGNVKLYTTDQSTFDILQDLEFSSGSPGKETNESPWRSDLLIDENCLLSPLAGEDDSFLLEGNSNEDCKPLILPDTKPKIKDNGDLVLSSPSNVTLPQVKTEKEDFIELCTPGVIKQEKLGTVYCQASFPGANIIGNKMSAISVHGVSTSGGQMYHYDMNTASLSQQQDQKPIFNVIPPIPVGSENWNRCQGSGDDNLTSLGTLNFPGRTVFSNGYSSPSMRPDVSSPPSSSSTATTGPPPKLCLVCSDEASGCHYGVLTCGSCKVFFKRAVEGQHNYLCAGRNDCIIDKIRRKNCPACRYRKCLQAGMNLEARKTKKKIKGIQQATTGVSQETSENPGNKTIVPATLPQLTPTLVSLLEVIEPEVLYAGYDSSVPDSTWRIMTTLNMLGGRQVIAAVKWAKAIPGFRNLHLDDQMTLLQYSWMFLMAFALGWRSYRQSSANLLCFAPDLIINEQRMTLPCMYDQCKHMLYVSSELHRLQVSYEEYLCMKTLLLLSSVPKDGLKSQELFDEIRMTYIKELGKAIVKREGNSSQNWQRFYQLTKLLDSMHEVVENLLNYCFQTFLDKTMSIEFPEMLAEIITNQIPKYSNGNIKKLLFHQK
Description: Displacement of fluormone from human recombinant glucocorticoid receptor ligand binding domain by fluorescence polarization assay

glucocorticoid receptor [2] = assay: Cell permeability in human HeLa cells assessed as glucocorticoid receptor-dependent induction of luciferase activity at 6 uM after 40 hrs by GAL4-responsive luciferase reporter gene assay relative to control; conditions: HeLa cells with GAL4-responsive luciferase reporter
glucocorticoid receptor [3] = assay: Cell permeability in human HeLa cells assessed as glucocorticoid receptor-dependent induction of luciferase activity at 0.6 uM after 40 hrs by GAL4-responsive luciferase reporter gene assay relative to control; conditions: HeLa cells with GAL4-responsive luciferase reporter
MCF7 = assay: Cell permeability in human MCF7 cells assessed as glucocorticoid receptor-dependent induction of luciferase activity after 40 hrs by GAL4-responsive luciferase reporter gene assay; conditions: MCF7, 40 h
glucocorticoid receptor [4] = assay: Cell permeability in human MCF7 cells assessed as glucocorticoid receptor-dependent induction of luciferase activity at 1 uM after 40 hrs by GAL4-responsive luciferase reporter gene assay relative to control; conditions: MCF7 cells with GAL4-responsive luciferase reporter

With C[C@H]1C[C@@H]2[C@H]3CCC4=CC(=O)C=C[C@@]4(C)[C@]3(F)[C@H](O)C[C@@]2(C)[C@]1(O)C(=O)CSCCNC(=S)NCCNC(=O)c1cc(NC(=O)c2cncn2C)cn1C the EC50 (HeLa) was 750 nM and the IC50 (Glucocorticoid receptor [1]) was 5.7 nM.

C[C@@H]1C[C@H]2[C@@H]3CCC4=CC(=O)C=C[C@]4(C)[C@@]3(F)[C@@H](O)C[C@]2(C)[C@@]1(O)C(=O)CSCCNC(=S)NCCCN(C)CCCNC(=O)CCNC(=O)c1cc(NC(=O)c2cc(NC(=O)c3nccn3C)cn2C)cn1C showed an IC50 (Glucocorticoid receptor [1]) of 12 nM.

In the case of C[C@H]1C[C@@H]2[C@H]3CCC4=CC(=O)C=C[C@@]4(C)[C@]3(F)[C@H](O)C[C@@]2(C)[C@]1(O)C(=O)CSCCNC(=S)NCCNC(=O)c1cc(NC(=O)c2cc(NC(=O)c3cc(NC(=O)c4nccn4C)cn3C)cn2C)cn1C, the IC50 (Glucocorticoid receptor [1]) is reported as 26 nM.

C[C@@H]1C[C@H]2[C@@H]3CCC4=CC(=O)C=C[C@]4(C)[C@@]3(F)[C@@H](O)C[C@]2(C)[C@@]1(O)C(=O)CSCCNC(=S)NCCCN(C)CCCNC(=O)CCNC(=O)c1cc(NC(=O)c2nccn2C)cn1C showed an IC50 (Glucocorticoid receptor [1]) of 8.5 nM.

C[C@H]1C[C@@H]2[C@H]3CCC4=CC(=O)C=C[C@@]4(C)[C@]3(F)[C@H](O)C[C@@]2(C)[C@]1(O)C(=O)CSCCNC(=S)NCCNC(=O)c1cc(NC(=O)c2cc(NC(=O)c3cc(NC(=O)c4cc(NC(=O)CCCNC(=O)c5nccn5C)cn4C)cn3C)cn2C)cn1C showed an IC50 (Glucocorticoid receptor [1]) of 23 nM.

Compound C[C@H]1C[C@@H]2[C@H]3CCC4=CC(=O)C=C[C@@]4(C)[C@]3(F)[C@H](O)C[C@@]2(C)[C@]1(O)C(=O)CSCCNC(=S)NCCNC(=O)c1cc(NC(=O)c2cc(NC(=O)c3nccn3C)cn2C)cn1C has an EC50 (HeLa) of 1200 nM, a fold induction at 40 h, 6 µM (glucocorticoid receptor [2]) of 3400 and an IC50 (Glucocorticoid receptor [1]) of 14 nM.

With C[C@H]1C[C@@H]2[C@H]3CCC4=CC(=O)C=C[C@@]4(C)[C@]3(F)[C@H](O)C[C@@]2(C)[C@]1(O)C(=O)CSCCNC(=S)NCCNC(=O)c1cc(NC(=O)c2cc(NC(=O)c3cc(NC(=O)c4cc(NC(=O)c5nccn5C)cn4C)cn3C)cn2C)cn1C the IC50 (Glucocorticoid receptor [1]) was 34 nM.

For C[C@H]1C[C@@H]2[C@H]3CCC4=CC(=O)C=C[C@@]4(C)[C@]3(F)[C@H](O)C[C@@]2(C)[C@]1(O)C(=O)CSCCNC(=S)NCCNC(=O)c1cc(NC(=O)c2cc(NC(=O)c3cc(NC(=O)c4cc(NC(=O)CCCNC(=O)c5cc(NC(=O)c6nccn6C)cn5C)cn4C)cn3C)cn2C)cn1C, the IC50 (Glucocorticoid receptor [1]) was 21 nM.

C[C@@H]1C[C@H]2[C@@H]3CCC4=CC(=O)C=C[C@]4(C)[C@@]3(F)[C@@H](O)C[C@]2(C)[C@@]1(O)C(=O)CSCCNC(=S)NCCCN(C)CCCNC(=O)CCNC(=O)c1cc(NC(=O)c2cc(NC(=O)c3cc(NC(=O)c4cc(NC(=O)CCCNC(=O)c5cc(NC(=O)c6nccn6C)cn5C)cn4C)cn3C)cn2C)cn1C showed an IC50 (Glucocorticoid receptor [1]) of 22 nM.

Compound C[C@H]1C[C@@H]2[C@H]3CCC4=CC(=O)C=C[C@@]4(C)[C@]3(F)[C@H](O)C[C@@]2(C)[C@]1(O)C(=O)CSCCNC(=S)NCCNC(=O)c1cc(NC(=O)c2cc(NC(=O)c3cc(NC(=O)c4cc(NC(=O)CCCNC(=O)c5cc(NC(=O)c6cc(NC(=O)c7nccn7C)cn6C)cn5C)cn4C)cn3C)cn2C)cn1C has an IC50 (Glucocorticoid receptor [1]) of 21 nM.

CC(=O)NCCNC(=S)NCCSCC(=O)[C@@]1(O)[C@H](C)C[C@H]2[C@@H]3CCC4=CC(=O)C=C[C@]4(C)[C@@]3(F)[C@@H](O)C[C@@]21C was tested, and the EC50 (HeLa) was 290 nM, the fold induction at 40 h, 0.6 µM (glucocorticoid receptor [3]) was 3600 and the IC50 (Glucocorticoid receptor [1]) was 9.8 nM.

Work on C[C@@H]1C[C@H]2[C@@H]3CCC4=CC(=O)C=C[C@]4(C)[C@@]3(F)[C@@H](O)C[C@]2(C)[C@@]1(O)C(=O)CSCCNC(=S)NCCCN(C)CCCNC(=O)CCNC(=O)c1cc(NC(=O)c2cc(NC(=O)c3cc(NC(=O)c4cc(NC(=O)c5nccn5C)cn4C)cn3C)cn2C)cn1C yielded an IC50 (Glucocorticoid receptor [1]) of 16 nM.

Work on C[C@H]1C[C@@H]2[C@H]3CCC4=CC(=O)C=C[C@@]4(C)[C@]3(F)[C@H](O)C[C@@]2(C)[C@]1(O)C(=O)NCCNC(=O)c1cc(NC(=O)c2cc(NC(=O)c3cc(NC(=O)c4nccn4C)cn3C)cn2C)cn1C yielded an IC50 (Glucocorticoid receptor [1]) of 550 nM.

For C[C@H]1C[C@@H]2[C@H]3CCC4=CC(=O)C=C[C@@]4(C)[C@]3(F)[C@H](O)C[C@@]2(C)[C@]1(O)C(=O)NCCNC(=O)c1cc(NC(=O)c2nccn2C)cn1C, the EC50 (HeLa) was 4200 nM and the IC50 (Glucocorticoid receptor [1]) was 460 nM.

C[C@@H]1C[C@H]2[C@@H]3CCC4=CC(=O)C=C[C@]4(C)[C@@]3(F)[C@@H](O)C[C@]2(C)[C@@]1(O)C(=O)CSCCNC(=S)NCCCN(C)CCCNC(=O)CCNC(=O)c1cc(NC(=O)c2cc(NC(=O)c3cc(NC(=O)c4cc(NC(=O)CCCNC(=O)c5cc(NC(=O)c6cc(NC(=O)c7cc(NC(=O)c8nccn8C)cn7C)cn6C)cn5C)cn4C)cn3C)cn2C)cn1C gave a Kd (Nucleic Acid) of 5 nM.

Work on C[C@H]1C[C@@H]2[C@H]3CCC4=CC(=O)C=C[C@@]4(C)[C@]3(F)[C@H](O)C[C@@]2(C)[C@]1(O)C(=O)NCCNC(=O)c1cc(NC(=O)c2cc(NC(=O)c3cc(NC(=O)c4cc(NC(=O)CCCNC(=O)c5cc(NC(=O)c6cc(NC(=O)c7cc(NC(=O)c8nccn8C)cn7C)cn6C)cn5C)cn4C)cn3C)cn2C)cn1C yielded an IC50 (Glucocorticoid receptor [1]) of 840 nM.

C[C@@H]1C[C@H]2[C@@H]3CCC4=CC(=O)C=C[C@]4(C)[C@@]3(F)[C@@H](O)C[C@]2(C)[C@@]1(O)C(=O)CSCCNC(=S)NCCCN(C)CCCNC(=O)CCNC(=O)c1cc(NC(=O)c2cc(NC(=O)c3cc(NC(=O)c4cc(NC(=O)CCCNC(=O)c5nccn5C)cn4C)cn3C)cn2C)cn1C was tested, and the IC50 (Glucocorticoid receptor [1]) was 16 nM.

Work on C[C@@H]1C[C@H]2[C@@H]3CCC4=CC(=O)C=C[C@]4(C)[C@@]3(F)[C@@H](O)C[C@]2(C)[C@@]1(O)C(=O)CSCCNC(=S)NCCCN(C)CCCNC(=O)CCNC(=O)c1cc(NC(=O)c2cc(NC(=O)c3cc(NC(=O)c4nccn4C)cn3C)cn2C)cn1C yielded an IC50 (Glucocorticoid receptor [1]) of 20 nM.

C[C@@H]1C[C@H]2[C@@H]3CCC4=CC(=O)C=C[C@]4(C)[C@@]3(F)[C@@H](O)C[C@]2(C)[C@@]1(O)C(=O)CSCCNC(=S)NCCCN(C)CCCNC(=O)CCNC(=O)c1cc(NC(=O)c2cc(NC(=O)c3cc(NC(=O)c4cc(NC(=O)CCCNC(=O)c5cc(NC(=O)c6cc(NC(=O)c7nccn7C)cn6C)cn5C)cn4C)cn3C)cn2C)cn1C was tested, and the IC50 (Glucocorticoid receptor [1]) was 20 nM.

With CC(=O)NCCC(=O)NCCCN(C)CCCNC(=S)NCCSCC(=O)[C@@]1(O)[C@H](C)C[C@H]2[C@@H]3CCC4=CC(=O)C=C[C@]4(C)[C@@]3(F)[C@@H](O)C[C@@]21C the fold induction at 40 h, 6 µM (glucocorticoid receptor [2]) was 600, the EC50 (MCF7) was 250 nM and the fold induction at 40 h, 1 µM (glucocorticoid receptor [4]) was 1200. The IC50 (Glucocorticoid receptor [1]) was 9.3 nM.

C[C@H]1C[C@@H]2[C@H]3CCC4=CC(=O)C=C[C@@]4(C)[C@]3(F)[C@H](O)C[C@@]2(C)[C@]1(O)C(=O)CSCCNC(=S)NCCNC(=O)c1cc(NC(=O)c2cc(NC(=O)c3cc(NC(=O)c4cc(NC(=O)CCCNC(=O)c5cc(NC(=O)c6cc(NC(=O)c7cc(NC(=O)c8nccn8C)cn7C)cn6C)cn5C)cn4C)cn3C)cn2C)cn1C was tested, and the fold induction at 40 h, 6 µM (glucocorticoid receptor [2]) was 1500 and the IC50 (Glucocorticoid receptor [1]) was 27 nM.

C[C@@H]1C[C@H]2[C@@H]3CCC4=CC(=O)C=C[C@]4(C)[C@@]3(F)[C@@H](O)C[C@]2(C)[C@@]1(O)C(N)=O [OXDEX] gave an EC50 (HeLa) of 35000 nM.
